How the values were obtained:
[1] = molecular target: Mitogen-activated protein kinase kinase kinase kinase 5 (Homo sapiens) (UniProt Q9Y4K4); assay: Selectivity interaction (KinomeScan (DiscoverX)) EUB0001049a MAP4K5; settings: at 1 µM
[2] = molecular target: BDNF/NT-3 growth factors receptor (Homo sapiens) (UniProt Q16620); assay: Selectivity interaction (KinaseProfiler screening (Millipore)) EUB0000601a NTRK2; settings: at 3 µM
[3] = molecular target: Serine/threonine-protein kinase SIK1 (Homo sapiens) (UniProt P57059); assay: Selectivity interaction (KinomeScan (DiscoverX)) EUB0000229b SIK1; settings: at 10 µM
[4] = molecular target: Histamine H3 receptor (Homo sapiens, UniProt Q9Y5N1); assay: Selectivity interaction (Eurofins CEREP Diversity Profile (receptors and ion channels)) EUB0000279b HRH3; settings: at 10 µM
[5] = molecular target: Mitogen-activated protein kinase 7 (Homo sapiens) (UniProt Q13164); assay: Selectivity interaction (Kinase panel (KiNativ target engagement assay in Jurkat cells)) EUB0001635a MAPK7; assay type: cell-based; settings: Selectivity number of off-targets 0.0, Selectivity number of targets 233.0, Source Knowledge https://www.sciencedirect.com/science/article/pii/S2451945619300674?via%3Dihub, at 1 µM
Sequence of Mitogen-activated protein kinase 7 (Homo sapiens) (Q13164 2-816 limits assumed): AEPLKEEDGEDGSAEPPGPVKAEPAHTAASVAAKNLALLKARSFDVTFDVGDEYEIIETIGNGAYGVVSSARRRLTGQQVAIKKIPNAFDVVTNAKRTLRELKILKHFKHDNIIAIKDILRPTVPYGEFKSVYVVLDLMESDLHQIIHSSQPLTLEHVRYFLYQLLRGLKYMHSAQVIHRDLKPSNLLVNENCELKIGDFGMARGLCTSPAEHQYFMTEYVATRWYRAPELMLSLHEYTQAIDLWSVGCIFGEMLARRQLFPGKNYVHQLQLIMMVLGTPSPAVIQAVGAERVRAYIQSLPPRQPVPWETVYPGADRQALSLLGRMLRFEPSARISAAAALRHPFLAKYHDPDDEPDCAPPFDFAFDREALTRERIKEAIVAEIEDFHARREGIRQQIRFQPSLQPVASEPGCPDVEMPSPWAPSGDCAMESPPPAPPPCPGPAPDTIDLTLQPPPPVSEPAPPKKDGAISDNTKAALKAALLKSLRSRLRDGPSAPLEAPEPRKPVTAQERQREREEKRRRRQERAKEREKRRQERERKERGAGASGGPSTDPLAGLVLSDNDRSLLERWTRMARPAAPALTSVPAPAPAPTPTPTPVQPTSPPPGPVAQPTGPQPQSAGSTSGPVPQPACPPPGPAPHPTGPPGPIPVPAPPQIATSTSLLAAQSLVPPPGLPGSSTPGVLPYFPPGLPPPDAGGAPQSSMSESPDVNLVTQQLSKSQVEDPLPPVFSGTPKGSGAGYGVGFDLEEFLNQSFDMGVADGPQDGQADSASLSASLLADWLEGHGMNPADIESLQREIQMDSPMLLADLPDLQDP

[6] = molecular target: T1, Serine/threonine-protein kinase RIO3 (Homo sapiens) (UniProt O14730); assay: Selectivity interaction (Ambit KINOMEscan and KiNATiv profiling in Jurkat cells) EUB0000090b RIOK3; assay type: cell-based; settings: at 1 µM
T1 sequence (whole entry): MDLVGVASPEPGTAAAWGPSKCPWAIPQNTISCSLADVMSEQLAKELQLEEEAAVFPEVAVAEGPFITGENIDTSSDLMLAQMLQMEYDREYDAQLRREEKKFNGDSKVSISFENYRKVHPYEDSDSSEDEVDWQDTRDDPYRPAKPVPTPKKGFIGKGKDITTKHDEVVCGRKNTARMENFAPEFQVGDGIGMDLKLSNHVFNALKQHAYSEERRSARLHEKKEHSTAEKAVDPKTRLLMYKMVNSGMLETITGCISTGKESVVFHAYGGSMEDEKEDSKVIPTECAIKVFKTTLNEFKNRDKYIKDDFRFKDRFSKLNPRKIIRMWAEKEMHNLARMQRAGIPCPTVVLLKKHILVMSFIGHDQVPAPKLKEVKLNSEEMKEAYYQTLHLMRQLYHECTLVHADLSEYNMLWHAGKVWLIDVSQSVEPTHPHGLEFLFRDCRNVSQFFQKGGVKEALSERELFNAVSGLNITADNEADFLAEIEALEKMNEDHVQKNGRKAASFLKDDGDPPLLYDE

[7] = molecular target: Histone-lysine N-methyltransferase SETDB1 (Homo sapiens) (UniProt Q15047); assay: Selectivity interaction (Methyltransferase screen (Scintillation proximity assays)) EUB0000255b SETDB1
[8] = molecular target: Macrophage colony-stimulating factor 1 receptor (Homo sapiens) (UniProt P07333); assay: Selectivity interaction (KinomeScan (DiscoverX)) EUB0000045b CSF1R
Sequence of Macrophage colony-stimulating factor 1 receptor (Homo sapiens) (P07333 whole entry): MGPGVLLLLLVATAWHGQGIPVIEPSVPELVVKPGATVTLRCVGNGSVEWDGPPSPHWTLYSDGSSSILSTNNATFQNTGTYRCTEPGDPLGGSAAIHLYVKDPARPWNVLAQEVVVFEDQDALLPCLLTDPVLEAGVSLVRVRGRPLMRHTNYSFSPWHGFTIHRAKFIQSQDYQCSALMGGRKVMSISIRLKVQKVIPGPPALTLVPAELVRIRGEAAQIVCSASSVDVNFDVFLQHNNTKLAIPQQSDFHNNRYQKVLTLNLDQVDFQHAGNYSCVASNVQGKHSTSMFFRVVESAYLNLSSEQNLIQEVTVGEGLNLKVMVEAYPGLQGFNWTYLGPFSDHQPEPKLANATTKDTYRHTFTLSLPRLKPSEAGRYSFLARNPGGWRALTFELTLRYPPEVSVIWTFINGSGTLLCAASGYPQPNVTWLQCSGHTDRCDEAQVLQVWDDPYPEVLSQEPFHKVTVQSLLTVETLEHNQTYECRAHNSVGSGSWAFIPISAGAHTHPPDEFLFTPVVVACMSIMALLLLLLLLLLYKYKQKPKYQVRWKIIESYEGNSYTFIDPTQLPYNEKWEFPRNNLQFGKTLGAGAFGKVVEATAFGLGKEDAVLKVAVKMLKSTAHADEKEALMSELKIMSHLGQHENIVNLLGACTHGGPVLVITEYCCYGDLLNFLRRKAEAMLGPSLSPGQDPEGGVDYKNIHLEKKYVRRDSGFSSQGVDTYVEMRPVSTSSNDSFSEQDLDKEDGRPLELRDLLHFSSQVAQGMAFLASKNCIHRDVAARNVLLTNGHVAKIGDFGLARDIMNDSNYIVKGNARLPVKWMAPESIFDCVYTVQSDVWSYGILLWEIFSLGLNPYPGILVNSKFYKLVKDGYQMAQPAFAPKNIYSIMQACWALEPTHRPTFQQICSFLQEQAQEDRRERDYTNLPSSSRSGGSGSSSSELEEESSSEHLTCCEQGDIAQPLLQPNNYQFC

[9] = molecular target: Insulin receptor-related protein (Homo sapiens) (UniProt P14616); settings: at 10 µM
[10] = molecular target: Phosphatidylinositol 4-kinase beta (Homo sapiens, UniProt Q9UBF8); assay: Selectivity interaction (Enzyme panel (AstraZeneca, AlphaScreen, functional assay)) EUB0000621a PI4KB
Sequence of Phosphatidylinositol 4-kinase beta (Q9UBF8 whole entry): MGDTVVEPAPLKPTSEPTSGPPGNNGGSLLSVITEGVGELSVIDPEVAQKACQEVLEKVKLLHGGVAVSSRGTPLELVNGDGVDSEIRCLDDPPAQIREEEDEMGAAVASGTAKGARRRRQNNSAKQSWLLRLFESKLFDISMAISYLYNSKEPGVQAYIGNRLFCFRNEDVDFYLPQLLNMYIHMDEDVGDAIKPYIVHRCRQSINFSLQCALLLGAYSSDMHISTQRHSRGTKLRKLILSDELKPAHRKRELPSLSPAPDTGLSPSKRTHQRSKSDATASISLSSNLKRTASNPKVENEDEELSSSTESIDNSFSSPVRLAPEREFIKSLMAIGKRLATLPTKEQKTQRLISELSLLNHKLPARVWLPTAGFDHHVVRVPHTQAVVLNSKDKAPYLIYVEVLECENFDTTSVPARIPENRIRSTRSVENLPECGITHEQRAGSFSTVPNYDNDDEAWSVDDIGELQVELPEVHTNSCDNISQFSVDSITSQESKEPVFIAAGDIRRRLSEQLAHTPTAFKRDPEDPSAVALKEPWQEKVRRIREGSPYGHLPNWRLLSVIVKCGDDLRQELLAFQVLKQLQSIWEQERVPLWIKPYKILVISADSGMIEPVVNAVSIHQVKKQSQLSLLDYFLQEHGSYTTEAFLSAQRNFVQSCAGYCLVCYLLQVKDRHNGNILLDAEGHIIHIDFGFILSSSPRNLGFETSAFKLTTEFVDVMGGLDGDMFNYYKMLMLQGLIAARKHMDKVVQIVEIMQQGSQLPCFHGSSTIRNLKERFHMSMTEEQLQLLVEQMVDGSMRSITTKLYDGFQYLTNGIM

[11] = molecular target: T2, Mitogen-activated protein kinase 12 (Homo sapiens) (UniProt P53778); assay: Selectivity interaction (ActivX KiNativ screen (ex vivo kinase selectivity in human PBMCs)) EUB0001619a MAPK12; assay type: cell-based; settings: PBMC, at 1 µM
T2 sequence (whole entry): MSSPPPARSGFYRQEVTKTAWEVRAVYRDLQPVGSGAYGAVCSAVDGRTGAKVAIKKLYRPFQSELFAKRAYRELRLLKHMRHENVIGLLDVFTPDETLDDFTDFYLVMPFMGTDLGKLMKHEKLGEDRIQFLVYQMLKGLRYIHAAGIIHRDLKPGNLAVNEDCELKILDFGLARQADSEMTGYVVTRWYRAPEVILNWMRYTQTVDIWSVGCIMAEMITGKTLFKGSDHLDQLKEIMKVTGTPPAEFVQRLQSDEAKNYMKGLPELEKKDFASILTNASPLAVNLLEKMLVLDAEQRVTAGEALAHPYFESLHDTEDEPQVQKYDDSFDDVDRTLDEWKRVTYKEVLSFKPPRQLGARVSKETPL

[12] = molecular target: T3, Tyrosine-protein kinase Tec (Homo sapiens) (UniProt P42680); assay: Selectivity interaction (KinomeScan (DiscoverX)) EUB0001868a TEC; settings: at 1 µM
T3 sequence (whole entry): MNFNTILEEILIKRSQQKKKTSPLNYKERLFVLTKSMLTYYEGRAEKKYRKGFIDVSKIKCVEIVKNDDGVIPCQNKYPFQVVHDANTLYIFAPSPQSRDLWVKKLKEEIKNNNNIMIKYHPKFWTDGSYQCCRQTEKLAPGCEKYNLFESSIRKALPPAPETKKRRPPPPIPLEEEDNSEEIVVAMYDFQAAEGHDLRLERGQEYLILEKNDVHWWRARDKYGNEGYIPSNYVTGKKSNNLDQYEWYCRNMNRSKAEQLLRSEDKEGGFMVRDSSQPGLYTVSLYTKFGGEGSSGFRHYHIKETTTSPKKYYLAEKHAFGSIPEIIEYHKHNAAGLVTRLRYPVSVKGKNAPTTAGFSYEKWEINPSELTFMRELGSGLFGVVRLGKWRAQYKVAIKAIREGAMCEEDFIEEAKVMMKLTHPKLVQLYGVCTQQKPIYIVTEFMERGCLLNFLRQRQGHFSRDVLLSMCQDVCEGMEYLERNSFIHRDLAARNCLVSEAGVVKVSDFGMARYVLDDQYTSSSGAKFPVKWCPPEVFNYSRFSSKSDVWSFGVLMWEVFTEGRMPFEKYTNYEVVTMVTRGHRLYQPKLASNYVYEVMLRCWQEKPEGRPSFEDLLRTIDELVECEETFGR

[13] = molecular target: Sodium-dependent serotonin transporter (Homo sapiens, UniProt P31645); assay: Selectivity interaction (Panel of kinases, GPCRs, ion channels and transporters (enzymatic assay)) EUB0000223bCl SLC6A4
Sequence of Sodium-dependent serotonin transporter (P31645 whole entry, looked up): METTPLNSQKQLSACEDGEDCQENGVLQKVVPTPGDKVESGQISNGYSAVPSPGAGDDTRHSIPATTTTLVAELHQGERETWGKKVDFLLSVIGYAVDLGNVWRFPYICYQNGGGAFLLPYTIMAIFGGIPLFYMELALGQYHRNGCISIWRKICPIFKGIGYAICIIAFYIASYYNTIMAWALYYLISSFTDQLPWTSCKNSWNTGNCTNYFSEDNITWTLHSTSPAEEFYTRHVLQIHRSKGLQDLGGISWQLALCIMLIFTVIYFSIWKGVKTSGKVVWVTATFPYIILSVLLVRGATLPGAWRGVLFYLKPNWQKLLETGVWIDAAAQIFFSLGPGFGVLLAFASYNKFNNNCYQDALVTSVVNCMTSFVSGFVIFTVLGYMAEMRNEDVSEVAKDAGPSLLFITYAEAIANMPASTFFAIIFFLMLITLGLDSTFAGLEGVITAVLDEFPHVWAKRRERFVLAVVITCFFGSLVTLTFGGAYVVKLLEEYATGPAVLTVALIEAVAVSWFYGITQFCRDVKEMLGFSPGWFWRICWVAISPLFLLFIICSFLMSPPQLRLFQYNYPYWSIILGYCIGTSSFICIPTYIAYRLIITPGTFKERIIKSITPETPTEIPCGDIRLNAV

[14] = test system: RAF proto-oncogene serine/threonine-protein kinase (Homo sapiens), P04049 [Y340D,Y341D]; assay: Selectivity interaction (LanthaScreen Eu Kinase Binding Assay) EUB0001632a RAF1; settings: at 10 µM
Sequence of RAF proto-oncogene serine/threonine-protein kinase (Homo sapiens), P04049 [Y340D,Y341D] (P04049 whole entry Y340D/Y341D): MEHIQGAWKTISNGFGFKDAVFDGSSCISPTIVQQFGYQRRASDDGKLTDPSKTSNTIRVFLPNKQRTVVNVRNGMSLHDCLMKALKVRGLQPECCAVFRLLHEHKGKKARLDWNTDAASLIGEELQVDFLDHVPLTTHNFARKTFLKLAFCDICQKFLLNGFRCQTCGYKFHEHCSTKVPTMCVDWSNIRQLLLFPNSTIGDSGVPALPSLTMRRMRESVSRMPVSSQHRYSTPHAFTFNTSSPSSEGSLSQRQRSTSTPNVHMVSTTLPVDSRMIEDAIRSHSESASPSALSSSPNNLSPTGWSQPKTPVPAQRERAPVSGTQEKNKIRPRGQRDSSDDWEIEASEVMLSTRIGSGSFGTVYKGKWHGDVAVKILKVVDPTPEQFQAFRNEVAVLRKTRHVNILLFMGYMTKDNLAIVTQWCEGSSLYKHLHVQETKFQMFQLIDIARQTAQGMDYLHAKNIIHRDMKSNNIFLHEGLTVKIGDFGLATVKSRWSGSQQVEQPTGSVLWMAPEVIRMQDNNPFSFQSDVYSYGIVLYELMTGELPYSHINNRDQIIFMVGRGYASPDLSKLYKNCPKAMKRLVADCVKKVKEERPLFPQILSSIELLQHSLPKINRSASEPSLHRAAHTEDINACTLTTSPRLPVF

Sequence of BDNF/NT-3 growth factors receptor (Homo sapiens) (Q16620 32-822 limits assumed): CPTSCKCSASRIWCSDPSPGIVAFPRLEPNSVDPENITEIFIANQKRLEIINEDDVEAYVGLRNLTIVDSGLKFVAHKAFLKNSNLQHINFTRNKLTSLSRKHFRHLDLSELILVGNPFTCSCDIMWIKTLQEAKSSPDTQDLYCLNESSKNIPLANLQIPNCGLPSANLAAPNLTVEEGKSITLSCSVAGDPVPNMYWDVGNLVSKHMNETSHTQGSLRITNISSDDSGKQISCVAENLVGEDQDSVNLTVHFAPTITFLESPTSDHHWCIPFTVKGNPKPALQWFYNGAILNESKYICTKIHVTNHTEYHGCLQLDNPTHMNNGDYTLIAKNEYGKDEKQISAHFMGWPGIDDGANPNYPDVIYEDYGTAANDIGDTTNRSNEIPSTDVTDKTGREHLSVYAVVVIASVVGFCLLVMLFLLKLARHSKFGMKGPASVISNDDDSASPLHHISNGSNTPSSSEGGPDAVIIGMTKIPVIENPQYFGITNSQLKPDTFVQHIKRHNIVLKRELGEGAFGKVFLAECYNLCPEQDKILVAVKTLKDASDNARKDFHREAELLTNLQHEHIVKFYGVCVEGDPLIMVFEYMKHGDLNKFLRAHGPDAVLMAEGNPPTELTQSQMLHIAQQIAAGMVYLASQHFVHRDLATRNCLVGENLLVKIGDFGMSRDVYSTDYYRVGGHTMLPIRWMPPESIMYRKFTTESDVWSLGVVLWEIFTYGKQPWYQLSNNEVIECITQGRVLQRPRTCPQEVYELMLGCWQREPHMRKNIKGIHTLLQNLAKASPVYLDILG

COc1cc(Nc2nc(C)cc(-c3cnn4nc(OC)ccc34)n2)cc(C(F)(F)F)c1
% of control [1]: 94%

CCc1cc(Nc2nccc(-c3c(-c4ccc(OC)c(C(=O)Nc5c(F)cccc5F)c4)nc4ccccn34)n2)c(OC)cc1N1CCC(N2CCN(S(C)(=O)=O)CC2)CC1
% of inhibition [2]: 47%

COc1cc(N(C)c2ccnc3ccc(C(F)(F)F)cc23)cc(OC)c1OC
% binding [3]: 96%

CC(=O)c1cc(-c2ccccc2OCC2CC2)c2ncccn12
% of control [4]: 105%

C=CC(=O)Nc1ccc(C(=O)Nc2[nH]nc3c2CN(C(=O)N[C@H](CN(C)C)c2ccccc2)C3(C)C)cc1
% of engagement [5]: -3.1%

CN(C)C/C=C/C(=O)Nc1ccc(C(=O)N2CCCC(Nc3ncc(Cl)c(-c4c[nH]c5ccccc45)n3)C2)cc1 (stereo unspecified)
% of control [6]: 69%

COCCN1CCC(c2cc(CN(C)C(=O)c3cccc(Oc4ccccc4)c3)ccn2)CC1
% activity ([7]; at 1 µM): > 95%
% activity ([7]; at 10 µM): > 90%

C=CC(=O)Nc1cc(-n2c(=O)ccc3cnc4ccc(-c5ccc(NS(C)(=O)=O)cc5)cc4c32)ccc1C
% of control ([8]; at 1 µM): 94%
% of control ([8]; at 10 µM): 87%

Cc1cc([C@@H](C)Nc2ccccc2C(=O)O)c2nc(N3CCOCC3)cc(=O)n2c1 [AZD-6482]
% of control [9]: 100%
IC50 [10]: 10 nM

N#Cc1cccc(-c2c[nH]c3ncnc(N4CCOCC4)c23)c1
% of inhibition [11]: -6%

Cc1cc(-c2ccnc(Nc3cnn(C)c3)n2)ccc1CNC(=O)N1CC(OC(C)C)C1
% of control [12]: 46%

COc1cc(C(=O)N2CC[C@@H](O)[C@@H](N)C2)cc2nc(-c3cc4ccccc4n3CC3CC3)n(C)c12
pXC50 [13]: 4.3 M

Cn1cc(-n2cnc3c(NCc4nc5cc(Cl)c(Cl)cc5[nH]4)nc(N4CCOCC4)nc32)cn1
% of inhibition [14]: 5.65%

Source: ChEMBL document CHEMBL5465560, “Selectivity Literature for EUbOPEN Chemogenomic Library” (2024)
